In brackets after ≈: the same amount, converted by molar mass. Read-outs that look alike come from different tables or passages of the source.
Assays:
[1] = DPPH radical scavenging assay
Method: The DPPH scavenging test was carried out using the method mentioned by Brand-Williams et al.. The percentage of DPPH scavenging was measured using Equation (1): % DPPH scavenging = (ODcontrol − ODsample)/ODcontrol × 100(1)

[2] = target: porcine pancreatic elastase (Sus scrofa, UniProt P00772); test: Elastase inhibition assay (N-succinyl-Ala-Ala-Ala-p-nitroanilide substrate); type: biochemical; details: for remaining activity at 100 µg/mL: read-out: Elastase activity (% of control)
Sequence of porcine pancreatic elastase (P00772 27-266): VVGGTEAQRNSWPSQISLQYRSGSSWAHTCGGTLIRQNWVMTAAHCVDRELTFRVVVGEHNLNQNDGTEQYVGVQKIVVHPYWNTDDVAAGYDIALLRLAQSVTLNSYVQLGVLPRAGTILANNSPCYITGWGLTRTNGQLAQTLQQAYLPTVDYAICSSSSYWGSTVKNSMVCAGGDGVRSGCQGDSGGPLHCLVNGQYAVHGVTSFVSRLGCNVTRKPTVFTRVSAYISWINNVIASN
Method: The elastase inhibition activity of EAE and its pure molecules FC and FM2 was evaluated at different concentrations ranging from 12 to 100 µg/mL. […] At a concentration of 100 µg/mL, the percentages of elastase activity with EAE, FC, and FM2 were equal to 12%, 42%, and 29%, respectively. Besides, the percentage of elastase activity with Epigallocatechin gallate was 8%.
The elastase inhibitory effect of our samples was evaluated as described by Angelis et al., using the enzyme porcine pancreatic elastase and the substrate N-succinyl-Ala-Ala-Ala-p-nitroanilide. The extract and the pure molecules were evaluated at concentrations ranging between 12 and 100 µg/mL. Epigallocatechin gallate was used as a positive control. The elastase inhibition was measured using Equation (3):% Elastase inhibition = (ODcontrol − ODsample) ODcontrol × 100(3)

[3] = Cell viability / cytotoxicity, MTT assay; details: mouse
Method: (§1) The cell viability of EAE and the two major isolated molecules FC and FM2 were evaluated against B16 cells.
(§2) B16 cells (C57BL/6, Resource No. RBRC-RCB0557) used in this study were prepared as described by Elloumi et al..
(§3) The MTT assay was performed to evaluate the cytotoxicity effect of our samples on B16 cells. Different sample concentrations (2.5–80 µg/mL) were applied to the Cells. The […] was measured as follows:% Cell viability = (ODsample/ODcontrol) × 100(4)

[4] = system: B16 cells; test: Cell viability / cytotoxicity, MTT assay; details: B16 cells, MTT; viability above 70% considered non-toxic (ISO 10993-5)
Method: as §1, §2, §3

[5] = target: T1, cellular tyrosinase in B16 cells (Mus musculus, UniProt P11344); test: Cellular tyrosinase activity assay on B16 cells; type: cell-based
T1 sequence (P11344 19-533): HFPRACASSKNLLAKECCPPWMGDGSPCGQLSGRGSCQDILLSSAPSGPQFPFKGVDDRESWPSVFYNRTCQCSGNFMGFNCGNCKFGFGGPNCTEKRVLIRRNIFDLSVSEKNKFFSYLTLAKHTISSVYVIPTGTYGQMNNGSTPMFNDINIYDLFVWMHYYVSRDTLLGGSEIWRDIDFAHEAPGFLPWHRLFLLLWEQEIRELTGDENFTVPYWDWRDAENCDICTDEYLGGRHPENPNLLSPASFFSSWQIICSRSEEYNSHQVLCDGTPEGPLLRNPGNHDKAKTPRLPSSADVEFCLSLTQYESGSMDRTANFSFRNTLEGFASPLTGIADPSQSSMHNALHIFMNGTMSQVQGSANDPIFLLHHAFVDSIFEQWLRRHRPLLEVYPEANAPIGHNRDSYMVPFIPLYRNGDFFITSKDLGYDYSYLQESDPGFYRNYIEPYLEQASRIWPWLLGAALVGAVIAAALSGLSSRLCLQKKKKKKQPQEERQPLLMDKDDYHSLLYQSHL
Method: The cellular tyrosinase inhibition activity on B16 cells was evaluated using EAE, FC, and FM2.
as §2
The cellular tyrosinase activity on B16 cells was evaluated as described by Kamei et al. with some modifications. Briefly, B16 cells were incubated in a 96-well plate (25 × 10^3 cells/well) for 24 h. […] After that, the cells were washed with PBS and lysed with PBS supplemented with 1% of Triton-X/PBS, after 48 h of samples exposure. A volume of 100 µL of 0.1% L-DOPA was added to the wells for 1 h. […] The cellular tyrosinase inhibition was measured as follows:% Cellular tyrosinase inhibition = (ODcontrol − ODsample)/ODcontrol × 100(5)

[6] = target: mushroom tyrosinase; test: Tyrosinase inhibition assay (L-DOPA substrate); type: biochemical; details: for IC50 of tyrosinase activity: L-DOPA; for Tyrosinase activity (% of control): at a concentration of 100 µg/mL
Method: EAE and its pure molecules FC and FM2 were evaluated in vitro for their tyrosinase inhibition activity.
The inhibitory effect of our samples on the mushroom tyrosinase enzyme was analyzed using the substrate L-DOPA [71]. The extract and the pure molecules were evaluated at concentrations ranging between 12 and 200 µg/mL. […] The tyrosinase inhibition was measured as follows:% Tyrosinase inhibition = (ODcontrol − ODsample)/ODcontrol × 100(2)

[7] = Transdermal diffusion, Franz diffusion cell with strat-M membrane; type: in vitro ADME; details: 5% EAE-hydro-cream, 24 h of incubation; for µg of Crossed Molecule/g of 5% Hydro-cream: strat-M membrane, 37 °C, mean ± SD (n = 9)
Method: The transdermal diffusion of 5% EAE-hydro-cream formulation was evaluated using Franz diffusion cell and start-M membrane. […] The receptor medium of the Franz cell was analyzed by HPLC-MS to determine the bioactive compounds that crossed the strat-M membrane after 24 h of incubation. […] The bioactive molecules FC and FM2 that crossed the strat-M membrane were subjected to quantification. […] Moreover, FC has crossed the membrane but with a lower concentration than FM2 (Table 4).
Transdermal diffusion was evaluated using a Franz diffusion cell system, as mentioned by Chuang et al. with certain modifications. Firstly, the start-M membrane, a model membrane for transdermal diffusion, was mounted in a Franz diffusion cell. Then, 5 mL of 0.1 M sodium phosphate buffer (PBS) and 1 g of extract formulation cream were placed in the receptor and the donor compartments, respectively. The extract formulation cream was prepared by mixing the hydro-cream base emulsion purchased from Galderma and the EAE at 5% (w/w) by a mechanical stirrer (VMI Rayneri, Francelab, Paris, France). The receptor medium of the Franz cell was maintained at 37 °C and stirred with a magnetic stirrer at 400 rpm. After 24 h, the receptor medium was recovered, evaporated, freeze-dried, and then 4 mL of MeOH was added. The sample was filtered through a 0.45 filter and analyzed by HPLC-MS to determine the bioactive molecules that were released from the start-M membrane. The bioactive molecules that crossed the start-M membrane were then quantified, as described in Section 4.4.6, by injecting the receptor medium through HPLC-DAD at a concentration of 10 mg/mL. Results were expressed as µg of molecule crossed the membrane/g of 5% EAE-hydro-cream.

[8] = at a concentration of 100 µg/mL

## O=C1O[C@H]([C@@H](O)CO)C(O)=C1O [Ascorbic acid]
[1]
  DPPH IC50: 13.85 µg/mL

## O=C(O[C@@H]1Cc2c(O)cc(O)cc2O[C@@H]1c1cc(O)c(O)c(O)c1)c1cc(O)c(O)c(O)c1 [Epigallocatechin gallate, reference compound]
[2]; [8]
  Elastase activity (% of control): 8%
[2]; porcine pancreatic elastase
  IC50 of elastase activity: 12 µg/mL

## C[C@@H]1O[C@@H](Oc2c(-c3ccc(O)c(O)c3)oc3cc(O)cc(O)c3c2=O)[C@H](O)[C@H](O)[C@H]1O [FC, quercetin-3-O-rhamnoside]
[3]
  IC50: 6.4 ± 0.53 µg/mL (≈ 14.3 µM)
[4]
  Concentration that did not decrease the percentage of cell viability: ≤ 2500 ng/mL
[2]
  IC50: 192 µM
[2]; [8]
  remaining activity at 100 µg/mL: 42%
[5]
  IC50: 7.49 µM
[6]
  IC50 of tyrosinase activity: 49 µg/mL
  Tyrosinase activity (% of control): 9%
[7]
  Crossing of the strat-M membrane (detected in receptor medium by HPLC-MS): have crossed the membrane
  µg of Crossed Molecule/g of 5% Hydro-cream: 3.161 ± 0.006 µg/g of 5% hydro-cream

## C[C@@H]1O[C@@H](Oc2c(-c3cc(O)c(O)c(O)c3)oc3cc(O)cc(O)c3c2=O)[C@H](O)[C@H](O)[C@H]1O [FM2, myricetin-3-O-rhamnoside]
[3]; B16 cells
  IC50: 19.3 ± 1.22 µg/mL (≈ 41.6 µM)
[4]
  Concentration that did not decrease the percentage of cell viability: ≤ 10000 ng/mL
[2]; [8]
  remaining activity at 100 µg/mL: 29%
[2]; porcine pancreatic elastase, read-out: IC50 of elastase activity (converted)
  IC50: 96.9 µM
[5]; B16 cells, 48 h of samples exposure, read-out: Cellular tyrosinase inhibition IC50 (converted)
  IC50: 9.91 µM
[6]
  IC50 of tyrosinase activity: 34 µg/mL
  Tyrosinase activity (% of control): 10%
[7]
  Crossing of the strat-M membrane (detected in receptor medium by HPLC-MS): have crossed the membrane
  µg of Crossed Molecule/g of 5% Hydro-cream: 52.102 ± 0.001 µg/g of 5% hydro-cream

## O=c1cc(CO)occ1O [kojic acid, reference compound]
[6]
  Tyrosinase activity (% of control): 7%

## O=c1c(O[C@@H]2O[C@H](CO)[C@H](O)[C@H](O)[C@H]2O)c(-c2ccc(O)c(O)c2)oc2cc(O)cc(O)c12 [quercetin-3-O-galactoside]
[7]
  Crossing of the strat-M membrane (detected in receptor medium by HPLC-MS): have crossed the membrane

From paper PMC8838631, “Pistacia lentiscus L. Distilled Leaves as a Potential Cosmeceutical Ingredient: Phytochemical Characterization, Transdermal Diffusion, and Anti-Elastase and Anti-Tyrosinase Activities” (Molecules, 2022)
